Results as given in ChEMBL document CHEMBL1909046, “DrugMatrix in vitro pharmacology data”.

What was measured:
Cytochrome P450 2C19 = Cytochrome P450 2C19 (Homo sapiens, UniProt P33261)
Cytochrome P450 1A2 = target: T1, Cytochrome P450 1A2 (Homo sapiens, UniProt P05177)
T1 sequence (P05177 whole entry): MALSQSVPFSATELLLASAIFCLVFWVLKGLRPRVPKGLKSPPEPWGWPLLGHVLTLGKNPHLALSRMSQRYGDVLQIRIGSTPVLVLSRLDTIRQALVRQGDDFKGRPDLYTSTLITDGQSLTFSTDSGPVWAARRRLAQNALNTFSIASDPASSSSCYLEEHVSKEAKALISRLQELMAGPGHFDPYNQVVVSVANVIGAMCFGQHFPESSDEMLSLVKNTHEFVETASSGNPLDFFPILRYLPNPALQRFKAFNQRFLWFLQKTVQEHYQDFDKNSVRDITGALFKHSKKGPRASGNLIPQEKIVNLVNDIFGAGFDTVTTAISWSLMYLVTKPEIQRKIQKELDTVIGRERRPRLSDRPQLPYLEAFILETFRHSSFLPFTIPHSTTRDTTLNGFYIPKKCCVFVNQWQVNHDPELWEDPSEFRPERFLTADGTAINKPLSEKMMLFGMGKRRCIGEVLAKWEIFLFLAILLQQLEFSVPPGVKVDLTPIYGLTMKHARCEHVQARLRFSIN

Chain of Cytochrome P450 2C19 (P33261 whole entry): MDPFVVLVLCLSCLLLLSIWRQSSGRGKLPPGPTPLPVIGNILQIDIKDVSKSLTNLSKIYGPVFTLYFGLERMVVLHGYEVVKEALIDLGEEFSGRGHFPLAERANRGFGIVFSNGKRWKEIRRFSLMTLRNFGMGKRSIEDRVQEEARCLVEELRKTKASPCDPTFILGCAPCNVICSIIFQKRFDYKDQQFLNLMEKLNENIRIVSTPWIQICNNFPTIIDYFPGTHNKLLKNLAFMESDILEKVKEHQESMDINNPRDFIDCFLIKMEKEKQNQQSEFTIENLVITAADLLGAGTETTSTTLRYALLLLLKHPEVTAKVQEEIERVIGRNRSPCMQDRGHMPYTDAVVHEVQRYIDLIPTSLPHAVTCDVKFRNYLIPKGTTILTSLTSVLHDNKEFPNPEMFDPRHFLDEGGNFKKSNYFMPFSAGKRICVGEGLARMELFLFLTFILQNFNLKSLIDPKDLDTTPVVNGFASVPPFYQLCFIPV

C[S+]([O-])c1ccc(-c2nc(-c3ccncc3)c(-c3ccc(F)cc3)[nH]2)cc1 (configuration not stated) [SB-203580]
IC50 (Cytochrome P450 2C19): 800 nM | IC50 (Cytochrome P450 1A2): 2000 nM
